Measurements: patent US20250340593A1, “METHOD AND COMPOSITION FOR TREATING NEURODEGENERATIVE DISORDER” (priority 2022, published 2025)
Residues, ends and D or L forms follow the SMILES beside them.

What was measured:
[1] = tested on: hippocampal slices from 8-month-old WT and APP/PS1 mice; assay: LTP field potential recordings in acute hippocampal slices; parameters: species or system mouse; details: for LTP amplitude computed as fEPSP slope 50 to 60 min after TBS / effect on LTP responses in WT slices: peptide 500 nM for 40 min before TBS
Method: Animals specimens Embryonic day 17-18 (E17-18) C57BI/6JRj wild-type male and female mice were used for primary hippocampal cell cultures. Electrophysiological field potential recording experiments were performed on 8-month-old wild type and transgenic heterozygous male APP/PS1-21 mice generated on a C57Bl/6 background and expressing a transgene combining human APP with the Swedish mutation (APPKM670/671NL) and mutated L166P human presenilin 1 (PS1) under the Thyl promoter (Radde et al, 2006). Wild type and APP/PSI mice were generated as described previously (Radde et al, 2006) and genotyping was carried out to reveal the presence or absence of APP and PSI transgenes. The study was conducted in accordance with the European Community Council directive 2010/63/EU on the protection of animals used for experimental and scientific purposes. Animal care and treatment procedures were realized according to the guidelines approved by the French Ethical Committee of the Lyon 1 University (DR2013-47).
Local field potential recordings (LFP) were performed on acute coronal hippocampal slices from 8-month-old wild type and transgenic heterozygous male APP/PS1-21 mice to measure baseline synaptic response and long-term potentiation (LTP) of Schaffer collaterals to CAI pyramidal cell synapses. Hippocampal slices (400 μm thick) were cut using a vibratome (Leica VT1200S) and incubated at room temperature in artificial cerebrospinal fluid (ACSF) containing (in mM): 124 NaCl, 10 glucose, 1.25 NaH2PO4, 2.5 KCl, 26 NaHCO3, 1.3 MgCl2, and 2.5 CaCl2, bubbled with 95% 02 and 5% CO2, pH 7.4) for 1 h prior to recording. Field excitatory postsynaptic potentials (fEPSPs) were recorded extracellularly in stratum radiatum of CAI region of the dorsal hippocampus in presence of gammaaminobutyric acid (GABA)-A receptor antagonist picrotoxin (100 μM). Electrical stimulation was realized with a bipolar tungsten electrode placed in CAI stratum radiatum and fEPSPs were measured using borosilicate glass microelectrodes (˜1-3 M (2) filled with ACSF. The tip of the recording electrode was located close to the slice surface. LFP were amplified and low-pass filtered at 3 kHz using a differential amplifier (X1000, WPI) and data acquisition and analyses were carried out using a National Instrument interface coupled with Elphy software (G. Sadoc, CNRS, France). LFP were sampled at 10 kHz and fEPSPs initial slope was computed to quantify synaptic responses. After baseline recordings of synaptic activity evoked at 0.2 Hz for at least 10 minutes, slices were incubated in ACSF or treated with the CP or BP at 500 nM for 40 min before inducing LTP with the theta burst stimulation (TBS). The effects of the peptides on synaptic responses were tested in a series of pilot experiments on mice of both genotypes. […] TBS consisted of 10 trains separated by 30 s, each train composed of 6 bursts at 5 Hz and each burst providing 4 pulses at 100 Hz. Before LTP induction, precautions were taken to ensure that approximately the same amplitude of fEPSPs was obtained in baseline for the different experiments to achieve the same level of cooperativity in each group. After LTP induction, fEPSPs were recorded for at least 60 min.

[2] = tested on: DIV 21 primary hippocampal neurons; assay: Aβ synaptic targeting in primary hippocampal neurons; type: cell-based, mouse; details: 500 nM biotinylated HMW Aβo enriched preparation aggregated 2 h with equimolar peptide; neurons treated 30 min
Method: Primary hippocampal neuron cultures were prepared from E17-18 C57Bl/6JRj mice. Briefly, hippocampi were removed, cut into pieces in Hank's buffered salt solution (HBSS), digested in HBSS supplemented with trypsin (0.25% v/v) and rinsed in HBSS and BSA 0.2%. Next, hippocampi were triturated in Neurobasal medium without phenol red supplemented with L-glutamine (2 mM), 2% B27, 1% penicillin-streptomycin (10000 U/mL). Hippocampal neurons were then plated onto poly-L-lysine coated coverslips (0.5 mg/ml) at a low density (15×10^3 cells/cm2) for synaptic targeting experiments. Neurons were subsequently cultured for 21 DIV in supplemented Neurobasal medium at 37° C. under 5% CO2, one-half of the media being changed once a week. […]
Treated hippocampal neuron cultures were fixed with 4% paraformaldehyde in 0.1 M phosphate buffer at RT prior to immunostaining. After a blocking step in non-permeabilizing condition (PBS, 1% BSA) surface-bound biotinylated Aβ was detected with fluorescently tagged streptavidin (Alexa Fluor 647, Invitrogen) incubated for 3 h at RT. […]
Immunostainings images were obtained using a confocal Zeiss LSM 880 AiryScan microscope equipped with two diode lasers (405, 561 nm), a laser gaz argon (488 nm) and a laser gaz He/Ne ([…]), a 63x objective and an additional zoom factor (3x). […] Biotinylated Aβ clusters were quantified in each ROI in collapsed Z-stacks.

NDYKDDDDKGAAA [CP, reference compound]
LTP amplitude computed as fEPSP slope 50 to 60 min after TBS ([1]; APP/PS1 slices): 119.8±9.1% | LTP amplitude computed as fEPSP slope 50 to 60 min after TBS ([1]; WT slices): 191.4±18.3% | effect on LTP responses in WT slices ([1]; WT slices): does not alter LTP responses | synapses colocalized with Aβ [2]: ~40%

CC(C)[C@H](NC(=O)[C@H](Cc1ccc(O)cc1)NC(=O)[C@@H](NC(=O)[C@H](CO)NC(=O)[C@H](Cc1c[nH]c2ccccc12)NC(=O)[C@H](CO)NC(=O)[C@H](CCCCN)NC(=O)[C@H](Cc1ccc(O)cc1)NC(=O)[C@H](CCCNC(=N)N)NC(=O)[C@H](CO)NC(=O)[C@H](CCCCN)NC(=O)[C@H](CCCCN)NC(=O)[C@H](CCCNC(=N)N)NC(=O)[C@@H](N)CCCCN)C(C)C)C(=O)NCC(=O)O [BP, KRKKSRYKSWSVYVG] (H-KRKKSRYKSWSVYVG-OH; N-terminus and C-terminus assumed)
change in baseline synaptic responses before LTP induction ([1]; 500 nM, during the 40 min prior to LTP induction, mice of both genotypes): did not induce a change | LTP amplitude computed as fEPSP slope 50 to 60 min after TBS ([1]; APP/PS1 slices): 226.7±40.5% | effect on LTP responses in WT slices ([1]; WT slices): does not alter LTP responses | synapses colocalized with Aβ [2]: only a small proportion
